Assay results as given in US10047083B2, “Dihydropyrimidinoisoquinolinones and pharmaceutical compositions thereof for the treatment of inflammatory disorders” (GALAPAGOS NV, priority 2011, dated 2018).

Target: T1, GPR84 (Homo sapiens, UniProt Q9NQS5)
T1 construct: expressed in transfected cells; membranes used
Experiment: GTPγS binding assay (GPR84)
Assay type: biochemical
Settings: membranes from stable cell line over expressing GPR84; 3,3′ di indolylmethane at EC80
Experimental: 1.1. Cell Based Assay: GTp-γS Binding Assay.
The following assay can be used for determination of GPR84 activation.
The assay is performed in a 96 well plate where the following reagents are added. […] In a last step, 30 μL of a mixture consisting of membranes-GTPγS-SpA beads is added [mixture consists of 20 μg/well membranes derived from stable cell line over expressing GPR84 (membranes are pre-incubated with 0.1 μM GDP for 15 min at 4° C.), 0.1 nM [^35S]GTPγS (Perkin Elmer, NEG030) and 0.5 mg/well PVT-WGA SpA beads (Perkin Elmer, RPNQ0001)]. All components are diluted in assay buffer containing 20 mM HEPES pH 7.4; 5 mM MgCl2; 250 mM NaCl; 0.05% BSA; 75 ug/mL saponin. Reactions are incubated for 90 min at room temperature followed by centrifugation at 2000 rpm during 15 min. Plates are read on a Topcount reader (Perkin Elmer) immediately after centrifugation (readout time, 1 min/well).

T1 sequence (Q9NQS5 whole entry): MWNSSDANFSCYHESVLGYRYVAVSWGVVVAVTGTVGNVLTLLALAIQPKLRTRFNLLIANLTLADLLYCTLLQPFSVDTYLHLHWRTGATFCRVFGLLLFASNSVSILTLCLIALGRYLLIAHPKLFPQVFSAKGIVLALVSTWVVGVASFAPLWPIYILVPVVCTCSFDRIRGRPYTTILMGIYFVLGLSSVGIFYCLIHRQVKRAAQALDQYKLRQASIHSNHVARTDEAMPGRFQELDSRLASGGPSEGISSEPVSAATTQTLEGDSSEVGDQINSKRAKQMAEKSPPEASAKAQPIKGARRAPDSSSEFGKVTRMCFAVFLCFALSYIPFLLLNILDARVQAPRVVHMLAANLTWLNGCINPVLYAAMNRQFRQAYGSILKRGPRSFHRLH

| SMILES | IC50 |
| --- | --- |
| C=CCOc1ccc2c(c1)CCn1c-2cc(OCC2COCCO2)nc1=O (stereo not shown) [Compound 1, 9-allyloxy-2-(-1-[1,4]dioxan-2-ylmethoxy)-6,7-dihydro-pyrimido[6,1-a]isoquinolin-4-one] | 101 to 500 nM |
| O=c1nc(OCC2COCCO2)cc2n1CCc1cc(-c3ccncc3)ccc1-2 (stereo not shown) [Compound 3, 2-([1,4]dioxan-2-ylmethoxy)-9-pyridin-4-yl-6,7-dihydro-pyrimido[6,1-a]isoquinolin-4-one] | 501 to 1000 nM |
| N#Cc1cccc(-c2ccc3c(c2)CCn2c-3cc(OCC3COCCO3)nc2=O)c1 (stereo not shown) [Compound 5, 3-[2-([1,4]dioxan-2-ylmethoxy)-4-oxo-6,7-dihydro-4H-pyrimido[6,1-a]isoquinolin-9-yl]-benzonitrile] | 501 to 1000 nM |
| N#Cc1ccc(-c2ccc3c(c2)CCn2c-3cc(OCC3COCCO3)nc2=O)cc1 (stereo not shown) [Compound 6, 4-[2-([1,4]dioxan-2-ylmethoxy)-4-oxo-6,7-dihydro-4H-pyrimido[6,1-a]isoquinolin-9-yl]-benzonitrile] | 101 to 500 nM |
| NC(=O)c1cc(-c2ccc3c(c2)CCn2c-3cc(OCC3COCCO3)nc2=O)ccc1F (stereo not shown) [Compound 28, 5-[2-([1,4]dioxan-2-ylmethoxy)-4-oxo-6,7-dihydro-4H-pyrimido[6,1-a]isoquinolin-9-yl]-2-fluoro-benzamide] | 501 to 1000 nM |
| COc1cccc(-c2ccc3c(c2)CCn2c-3cc(OCC3COCCO3)nc2=O)c1 (stereo not shown) [Compound 43, 2-([1,4]dioxan-2-ylmethoxy)-9-(3-methoxy-phenyl)-6,7-dihydro-pyrimido[6,1-a]isoquinolin-4-one] | 101 to 500 nM |
| O=c1nc(OCC2COCCO2)cc2n1CCc1cc(C#CCCO)ccc1-2 (stereo not shown) [Compound 45, 2-([1,4]dioxan-2-ylmethoxy)-9-(4-hydroxy-but-1-ynyl)-6,7-dihydro-pyrimido[6,1-a]isoquinolin-4-one] | 501 to 1000 nM |
| NC(=O)c1ccc(F)c(-c2ccc3c(c2)CCn2c-3cc(OCC3COCCO3)nc2=O)c1 (stereo not shown) [Compound 50, 3-[2-([1,4]dioxan-2-ylmethoxy)-4-oxo-6,7-dihydro-4H-pyrimido[6,1-a]isoquinolin-9-yl]-4-fluoro-benzamide] | 101 to 500 nM |
| NC(=O)c1cc(F)cc(-c2ccc3c(c2)CCn2c-3cc(OCC3COCCO3)nc2=O)c1 (stereo not shown) [Compound 51, 3-[2-([1,4]dioxan-2-ylmethoxy)-4-oxo-6,7-dihydro-4H-pyrimido[6,1-a]isoquinolin-9-yl]-5-fluoro-benzamide] | 101 to 500 nM |
| O=c1nc(OCC2COCCO2)cc2n1CCc1cc(C#Cc3ccncc3)ccc1-2 (stereo not shown) [Compound 53, 2-([1,4]dioxan-2-ylmethoxy)-9-pyridin-4-ylethynyl-6,7-dihydro-pyrimido[6,1-a]isoquinolin-4-one] | 101 to 500 nM |
| Cc1cc(COc2ccc3c(c2)CCn2c-3cc(OCC3COCCO3)nc2=O)on1 (stereo not shown) [Compound 54, 2-([1,4]dioxan-2-ylmethoxy)-9-(3-methyl-isoxazol-5-ylmethoxy)-6,7-dihydro-pyrimido[6,1-a]isoquinolin-4-one] | 101 to 500 nM |
| CC(C)(O)C#Cc1ccc2c(c1)CCn1c-2cc(OCC2COCCO2)nc1=O (stereo not shown) [Compound 55, 2-([1,4]dioxan-2-ylmethoxy)-9-(3-hydroxy-3-methyl-but-1-ynyl)-6,7-dihydro-pyrimido[6,6,1-a]isoquinolin-4-one] | > 1000 nM |
| O=c1nc(OCC2COCCO2)cc2n1CCc1cc(C3=CCOCC3)ccc1-2 (stereo not shown) [Compound 58, 9-(3,6-dihydro-2H-pyran-4-yl)-2-([1,4]dioxan-2-ylmethoxy)-6,7-dihydro-pyrimido[6,1-a]isoquinolin-4-one] | 101 to 500 nM |
| N#Cc1ccc(-c2ccc3c(c2)CCn2c-3cc(OCC3COCCO3)nc2=O)cn1 (stereo not shown) [Compound 59, 5-[2-([1,4]dioxan-2-ylmethoxy)-4-oxo-6,7-dihydro-4H-pyrimido[6,1-a]isoquinolin-9-yl]-pyridine-2-carbonitrile] | 501 to 1000 nM |
| CCOc1ccc(-c2ccc3c(c2)CCn2c-3cc(OCC3COCCO3)nc2=O)cn1 (stereo not shown) [Compound 61, 2-([1,4]dioxan-2-ylmethoxy)-9-(6-ethoxy-pyridin-3-yl)-6,7-dihydro-pyrimido[6,1-a]isoquinolin-4-one] | 0.01 to 100 nM |
| COc1nccc(-c2ccc3c(c2)CCn2c-3cc(OCC3COCCO3)nc2=O)c1Cl (stereo not shown) [Compound 64, 9-(3-chloro-2-methoxy-pyridin-4-yl)-2-([1,4]dioxan-2-ylmethoxy)-6,7-dihydro-pyrimido[6,1-a]isoquinolin-4-one] | 101 to 500 nM |
| Cc1cc(-c2ccc3c(c2)CCn2c-3cc(OCC3COCCO3)nc2=O)ccn1 (stereo not shown) [Compound 65, 2-([1,4]dioxan-2-ylmethoxy)-9-(2-methyl-pyridin-4-yl)-6,7-dihydro-pyrimido[6,1-a]isoquinolin-4-one] | 501 to 1000 nM |

| SMILES | IC50 |
| --- | --- |
| N#Cc1ccncc1-c1ccc2c(c1)CCn1c-2cc(OCC2COCCO2)nc1=O (stereo not shown) [Compound 66, 3-[2-([1,4]dioxan-2-ylmethoxy)-4-oxo-6,7-dihydro-4H-pyrimido[6,1-a]isoquinolin-9-yl]-isonicotinonitrile] | 101 to 500 nM |
| COc1ccc(OC)c(-c2ccc3c(c2)CCn2c-3cc(OCC3COCCO3)nc2=O)c1 (stereo not shown) [Compound 67, 9-(2,5-dimethoxy-phenyl)-2-([1,4]dioxan-2-ylmethoxy)-6,7-dihydro-pyrimido[6,1-a]isoquinolin-4-one] | 0.01 to 100 nM |
| COc1ccc(-c2ccc3c(c2)CCn2c-3cc(OCC3COCCO3)nc2=O)c(OC)n1 (stereo not shown) [Compound 70, 9-(2,6-dimethoxy-pyridin-3-yl)-2-([1,4]dioxan-2-ylmethoxy)-6,7-dihydro-pyrimido[6,1-a]isoquinolin-4-one] | 0.01 to 100 nM |
| O=c1nc(OCC2COCCO2)cc2n1CCc1cc(-c3ccc(N4CCCC4)nc3)ccc1-2 (stereo not shown) [Compound 74, 2-([1,4]dioxan-2-ylmethoxy)-9-(6-pyrrolidin-1-yl-pyridin-3-yl)-6,7-dihydro-pyrimido[6,1-a]isoquinolin-4-one] | 0.01 to 100 nM |
| O=c1nc(OCC2COCCO2)cc2n1CCc1cc(OCc3ncc(-c4ccccc4)o3)ccc1-2 (stereo not shown) [Compound 75, 2-([1,4]dioxan-2-ylmethoxy)-9-(5-phenyl-oxazol-2-ylmethoxy)-6,7-dihydro-pyrimido[6,1-a]isoquinolin-4-one] | 0.01 to 100 nM |
| CC(C)(C)c1cnc(COc2ccc3c(c2)CCn2c-3cc(OCC3COCCO3)nc2=O)o1 (stereo not shown) [Compound 76, 9-(5-tert-butyl-oxazol-2-ylmethoxy)-2-([1,4]dioxan-2-ylmethoxy)-6,7-dihydro-pyrimido[6,1-a]isoquinolin-4-one] | 0.01 to 100 nM |
| CCc1nc(COc2ccc3c(c2)CCn2c-3cc(OCC3COCCO3)nc2=O)no1 (stereo not shown) [Compound 78, 2-([1,4]dioxan-2-ylmethoxy)-9-(5-ethyl-[1,2,4]oxadiazol-3-ylmethoxy)-6,7-dihydro-pyrimido[6,1-a]isoquinolin-4-one] | 0.01 to 100 nM |
| Cc1nc(COc2ccc3c(c2)CCn2c-3cc(OCC3COCCO3)nc2=O)no1 (stereo not shown) [Compound 79, 2-([1,4]dioxan-2-ylmethoxy)-9-(5-methyl-[1,2,4]oxadiazol-3-ylmethoxy)-6,7-dihydro-pyrimido[6,1-a]isoquinolin-4-one] | 101 to 500 nM |
| O=c1nc(OCC2COCCO2)cc2n1CCc1cc(C#CC3CCCC3)ccc1-2 (stereo not shown) [Compound 81, 9-cyclopentylethynyl-2-([1,4]dioxan-2-ylmethoxy)-6,7-dihydro-pyrimido[6,1-a]isoquinolin-4-one] | 0.01 to 100 nM |
| O=c1nc(OCC2COCCO2)cc2n1CCc1cc(C#CC3CCCCC3)ccc1-2 (stereo not shown) [Compound 82, 9-cyclohexylethynyl-2-([1,4]dioxan-2-ylmethoxy)-6,7-dihydro-pyrimido[6,1-a]isoquinolin-4-one] | 0.01 to 100 nM |
| CCCCC#Cc1ccc2c(c1)CCn1c-2cc(OCC2COCCO2)nc1=O (stereo not shown) [Compound 84, 2-([1,4]dioxan-2-ylmethoxy)-9-hex-1-ynyl-6,7-dihydro-pyrimido[6,1-a]isoquinolin-4-one] | 0.01 to 100 nM |
| CC(O)C#Cc1ccc2c(c1)CCn1c-2cc(OCC2COCCO2)nc1=O (stereo not shown) [Compound 87, 2-([1,4]dioxan-2-ylmethoxy)-9-(3-hydroxy-but-1-ynyl)-6,7-dihydro-pyrimido[6,1-a]isoquinolin-4-one] | 101 to 500 nM |
| CCC(O)(C#Cc1ccc2c(c1)CCn1c-2cc(OCC2COCCO2)nc1=O)CC (stereo not shown) [Compound 91, 2-([1,4]dioxan-2-ylmethoxy)-9-(3-ethyl-3-hydroxy-pent-1-ynyl)-6,7-dihydro-pyrimido[6,1-a]isoquinolin-4-one] | 101 to 500 nM |
| O=c1nc(OCC2COCCO2)cc2n1CCc1cc(C#CCNCc3ccccc3)ccc1-2 (stereo not shown) [Compound 93, 9-(3-benzylamino-prop-1-ynyl)-2-([1,4]dioxan-2-ylmethoxy)-6,7-dihydro-pyrimido[6,1-a]isoquinolin-4-one] | 0.01 to 100 nM |
| CCn1cc(-c2ccc3c(c2)CCn2c-3cc(OCC3COCCO3)nc2=O)cn1 (stereo not shown) [Compound 95, 2-([1,4]dioxan-2-ylmethoxy)-9-(1-ethyl-1H-pyrazol-4-yl)-6,7-dihydro-pyrimido[6,1-a]isoquinolin-4-one] | 501 to 1000 nM |
| CC(C)CCn1cc(-c2ccc3c(c2)CCn2c-3cc(OCC3COCCO3)nc2=O)cn1 (stereo not shown) [Compound 96, 2-([1,4]dioxan-2-ylmethoxy)-9-[1-(3-methyl-butyl)-1H-pyrazol-4-yl]-6,7-dihydro-pyrimido[6,1-a]isoquinolin-4-one] | 101 to 500 nM |
| Cc1ccc(-c2ccc3c(c2)CCn2c-3cc(OCC3COCCO3)nc2=O)o1 (stereo not shown) [Compound 97, 2-([1,4]dioxan-2-ylmethoxy)-9-(5-methyl-furan-2-yl)-6,7-dihydro-pyrimido[6,1-a]isoquinolin-4-one] | 101 to 500 nM |
